Assay results reported in patent publication US20260124240A1, “DRUG RESISTANT IMMUNE CELLS” (The Regents of the University of California, priority 2022, published 2026).

Legend:
[1] = tested on: WT iPSC-derived NK cells (BCL2WT/WT); assay: Venetoclax dose response / cell survival assay on WT iPSC-derived NK cells; format: cell-based, human
Experimental: (§1) FIGS. 12A-12H: BCL2 G101V iPSC-derived NK cells are resistant to venetoclax and anti-apoptotic BCL2 family member levels are unchanged. Dose response curves for WT iPSC-derived NK (FIG. 12A), Homozygous BCL2 G101V iPSC-derived NK cells (FIG. 12B), and Heterozygous BCL2 G101V iPSC-derived NK cells (FIG. 12C) treated with Venetoclax and assessed for viability at 72 hours post treatment. FIG. 12D. Dose response for WT iPSC-derived NK and homozygous BCL2 G101V iPSC-derived NK cells treated with dexamethasone and assessed for viability at 72 hours post treatment. […] real-time PCR analysis of BCL2 (FIG. 12E), BCL-XL (FIG. 12F), and MCL1 (FIG. 12G) mRNA level for WT iPSC-derived NK and BCL2 G101V iPSC-derived NK cells vehicle or venetoclax treated. FIG. 12H. Immunoblots for BCL2, and BCL-XL protein levels with a β-actin loading control.
(§2) Resistance to venetoclax of the heterozygous and homozygous BCL2 G101V iPSC-derived NK cells was tested in cell survival assays.

[2] = dose of 400 mg/day; cited from earlier work
[3] = tested on: Heterozygous BCL2 G101V iPSC-derived NK cells (BCL2G101V/WT); assay: Venetoclax dose response / cell survival assay on heterozygous BCL2 G101V iPSC-derived NK cells; format: cell-based; conditions: Homo sapiens, viability at 72 hours post treatment
Experimental: as §1, §2

[4] = tested on: venetoclax-resistant MOLM13 cells; assay: Venetoclax sensitivity of venetoclax-resistant MOLM13 cells; format: cell-based
Experimental: The MOLM13 cells lines were cultured continuously in increasing concentrations of venetoclax over 6 weeks to generate and select for venetoclax-resistant cells. The resulting cells could be maintained in 3 μM venetoclax without toxicity. The resistant cells were cultured continuously in the presence of venetoclax.
(§3) For longer-term assays to examine the ability of BCL2G101V/G101V iPSC-derived NK cells to mediate effective killing of venetoclax-resistant AML cells, MOLM13 cells that are venetoclax-resistant were generated.

[5] = tested on: WT MOLM13 cells; assay: Venetoclax sensitivity of WT MOLM13 cells; format: cell-based; conditions: Homo sapiens, MOLM-13
Source text: as §3

[6] = tested on: luciferase-expressing, venetoclax-resistant MOLM-13 cells; assay: Mouse xenograft study (MOLM13 AML); format: in vivo; conditions: NSG mice, 1×10^7 NK cells IV, venetoclax 50 mg/kg daily for 21 days where given
Experimental: FIG. 15: A schema of NK cell dosing regimen and venetoclax treatment plan. NSG mice were inoculated IV with 2.5×10^5 luciferase-expressing MOLM13 cells, and tumor engraftment was assessed by IVIS imaging 4 days later for baseline pre-treatment grouping. On day 4 after tumor inoculation, mice were either left untreated or treated with 1×10^7 WT iPSC-derived NK cells or BCL2 G101V iPSC-derived NK cells alone or in combination with venetoclax for 21 days. NK cells were supported by injection of IL-15 for the first week and IL-2 for three weeks with IVIS imaging done as indicated to monitor tumor progression.
Eight-week-old NOD/SCID/γc−/− (NSG) mice (Jackson Laboratories, n=5 per group) were used for in vivo experiments. Mice received 2.5×10^5 luciferase-expressing MOLM13 tumor cells intravenously. Mice were sub-lethally irradiated (225 cGy) 4 days after tumor engraftment. 107 NK cells/mouse were injected IV on the day of irradiation. NK cells were supported by the injection of IL-2 and IL-15 as reported previously 27, 28. […] Tumor burden was determined by BLI using the Xenogen IVIS Imaging system. […]
To evaluate the anti-tumor activity of BCL2G101V/G101V NK cells in vivo, BCL2G101V/G101V iPSC-derived NK cell killing of MOLM13 AML cells was assessed in a mouse xenograft tumor model. […] Tumor growth was monitored by bioluminescent imaging (BLI) (FIG. 16A).

[7] = tested on: Homozygous BCL2 G101V iPSC-derived NK cells (1F6); assay: Venetoclax dose response / cell survival assay on homozygous BCL2 G101V (1F6) iPSC-derived NK cells; format: cell-based; conditions: Homo sapiens; homozygous BCL2G101V/G101V (1F6) NK cells; viability at 72 hours post treatment; read-out: EC50 where 50% of the NK cells are killed by venetoclax
Experimental: as §1, §2

For `CC1(C)CCC(CN2CCN(c3ccc(C(=O)NS(=O)(=O)c4ccc(NCC5CCOCC5)c([N+](=O)[O-])c4)c(Oc4cnc5[nH]ccc5c4)c3)CC2)=C(c2ccc(Cl)cc2)C1` [venetoclax], the EC50 ([1]; Homo sapiens, WT iPSC-derived NK cells, viability at 72 hours post treatment, read-out: EC50 where 50% of the NK cells are killed by venetoclax) is given as 63.7 nM, the “toxicity to unengineered NK cells” value ([1]; at serum concentration of 2.3 μmol/L) is given as “toxic” and the serum concentration [2] is given as 2300 nM. For the same compound, the EC50 [3] was 3550 nM, the “increased resistance to venetoclax compared to WT MOLM13 cells” value ([4]; venetoclax-resistant MOLM13) was “over 100 fold” and the “venetoclax concentration in which resistant cells could be maintained without toxicity” value ([4]; venetoclax-resistant MOLM13, selected over 6 weeks) was 3 µM. The IC50 [5] was 24 nM, the median survival [6] was 18.8 days and the EC50 [7] was 6020 nM.
